Like-named read-outs stand apart in the source and are kept apart here.
Assays:
T. gondii tachyzoites = assay: [3H]-uracil uptake assay of parasite growth inhibition in infected HFF cell monolayers; assay type: cell-based, Toxoplasma gondii; conditions: for IC50: read-out: IC50 against T. gondii in the uracil uptake assay; for activity against cultured T. gondii parasites: uracil uptake / whole cell assay
Text: (§1) Host cells and parasite cultures—RH strain or RH ΔHXGPRT strain tachyzoites of T. gondii were maintained by serial passage in confluent monolayers of human foreskin fibroblasts (“HFF”) as described (Roos, D. S. et al., 1994, Methods Cell Biol. 45:27-63). A modified [^3H]-uracil uptake assay (Pfefferkorn, E. R. and Pfefferkorn, L. C., 1977, J. Protozool. 24:449-453) adapted for use in 96-well scintillation plates (Cytostar-T, Amersham; Piscataway, N.J.) was used to measure parasite growth inhibition. Each well, previously seeded with HFF cells, was inoculated with T. gondii tachyzoites (2×10^4) in 200 μl of growth media containing 2 μCi [5,6]-^3H-uracil (Perkin-Elmer NEN; Boston, Mass.) and serially diluted compound. Following incubation at 37° C. for 36-48 hours, tritium-incorporation into host cell monolayers was directly counted in a microplate scintillation counter (MicroBeta, PerkinElmer-Wallac).

T. gondii = assay: Parasite growth inhibition, modified [3H]-uracil uptake assay in infected HFF cell monolayers; assay type: cell-based, Toxoplasma gondii; conditions: for activity against T. gondii in the uracil uptake (whole cell) assay: cultured parasites, in words
Text: as §1
The only other CDK inhibitor with sub-μM activity against T. gondii was indirubin-3′-monoxime, which gave an IC50 value of 500 nM.

EtCKIα = EtCKIα (Eimeria tenella, UniProt Q6QNL9); assay: Casein kinase assay, partially purified native EtCKIα; assay type: biochemical; conditions: native enzyme
Description: (§2) Protein kinase assays—Casein kinase activity was assayed essentially as described (Donald, R. G. K. et al., 2002, supra) using 96-well phosphocellulose plates (MAPH-NOB, Millipore; Billerica, Mass.) to capture ^33P-phosphorylated peptide or casein substrates. Kinase reactions were carried out in 40 μl volumes containing 25 mM Hepes, pH 7.4, 10 mM MgCl2, 20 mM β-glycerophosphate, 1 mM DTT, 250 μM substrate, 1 mg/mL BSA, 2 μM ATP, and 0.01 μM [γ-^33P]ATP (Perkin-Elmer, 3000 Ci/mmol). The reactions were initiated by the addition of enzyme and incubated at room temperature for 60 min. Casein (5% solution), partially dephosphorylated α-casein and β-casein were obtained from Sigma.
(§3) A variety of commercially available peptide substrates were evaluated. From Calbiochem (San Diego, Calif.): CKI substrate (RRKDLHDDEEDEAMSITA; SEQ ID NO:13); CKII substrate (RRADDSDDDDD; SEQ ID NO:14); Syntide-2 substrate (PLARTLSVAGLPGKK; SEQ ID NO:15); CaM kinase II substrate (281-291) (MHKNETVECLK; SEQ ID NO:16). From Promega: CKI substrate (DDDEESITRR; SEQ ID NO:17) and kemptide (LRRASLG; SEQ ID NO:18). From New England Biolabs (Beverly, Mass.): CKI phosphopeptide substrate (KRRRALS(p)VASLPGL; SEQ ID NO:19), and CKII substrate (RRREEETEEE; SEQ ID NO:20). PKG assays were performed with kemptide as substrate and 10 μM cGMP. CDPK was assayed with Syntide-2 substrate and in the presence of 100 μM CaCl2.
Partial purification of native EtCKIα—The inability to stably express recombinant EtCKIα in T. gondii provided impetus to purify native enzyme from E. tenella parasites (slide 5). A lysate was prepared from 2×10^10 unsporulated oocysts using previously published procedures (Gurnett, A. M. et al., 2002, supra). The first two steps of the purification scheme used were essentially scaled-up from the method described for the purification of native TgCKIα. The lysate was subjected to preparative HiLoad Q anion-exchange chromatography and fractions eluted with a NaCl gradient (0-1 M NaCl). […]

TgCKIα [1] = target: T1, TgCKIα (Toxoplasma gondii, UniProt Q6QNM1); assay: Casein kinase assay, TgCKIα (recombinant FLAGTgCKIα or partially purified native); assay type: biochemical; set-up: other: recombinant or native forms of TgCKIα
Description: as §2, with “The reactions were initiated by the addition of enzyme and incubated at room temperature for 60 min.” left out
as §3
Purification of recombinant CKI enzymes—E. coli strain BL21 Origami™ (Novagen) was transformed with FLAGTgCKIα and FLAGTgCKIβ expression vectors, and colonies were expanded into 250 mL LB cultures grown at 37° C. […] Protein was measured with a micro-BCA reagent (Pierce) following a TCA-sodium deoxycholate step to remove residual FLAG peptide (Brown et al., 1989, Anal. Biochem. 180:136-139). […]
(§4) Preparations of FLAGTgCKIα and FLAGTgCKIβ were purified further on a SMART system FPLC 0.1 mL MonoQ anion exchange column (Pharmacia; New York, N.Y.) equilibrated in buffer A (50 mM Hepes, pH 7.4, 10% glycerol, 1 mM DTT) at room temperature. […] A linear salt gradient was applied (0-500 mM in 3 mL at 100 μl/min) and 100 μl fractions were collected and analyzed by SDS-PAGE and for CKI activity. […]

TgCKIβ = TgCKIβ (Toxoplasma gondii, UniProt Q6QNM0); assay: Casein kinase assay, recombinant FLAGTgCKIβ; assay type: biochemical; conditions: substrate titration, 2 μM ATP; for Km: read-out: Km(app), FLAGTgCKIβ
Description: as §2, with “The reactions were initiated by the addition of enzyme and incubated at room temperature for 60 min.” left out
as §3
(§5) Purification of recombinant CKI enzymes—E. coli strain BL21 Origami™ (Novagen) was transformed with FLAGTgCKIα and FLAGTgCKIβ expression vectors, and colonies were expanded into 250 mL LB cultures grown at 37° C. Expression was induced with 1 mM IPTG once cultures had reached an OD600nm of 0.3-0.5, and the transformed bacteria were harvested 4-6 hours later. Cell pellets were resuspended in 15 mL of lysis buffer containing protease inhibitors and lysates prepared as described by the supplier (Bugbuster™ reagents, Novagen). The concentration of NaCl in the lysate was adjusted to 0.5 M, and 0.5 mL of FLAG-agarose beads were added (Sigma). The mixture was allowed to rock in a Nutator mixer (Becton-Dickinson; San Jose, Calif.) for 2 hours at 4° C. The slurry was then poured into an empty column and the matrix washed with 50 mL of wash buffer (50 mM Tris-HCl, pH 7.4, 0.5M NaCl, 10% glycerol, 1 mM DTT, 1 mM EDTA). Enzyme was eluted with 5 mL of 0.4 mg/mL FLAG peptide (Sigma) in NaCl-free wash buffer and concentrated with a centrifuge filtration unit (Amicon Ultra®, 10 kDa cut-off, Millipore). Protein was measured with a micro-BCA reagent (Pierce) following a TCA-sodium deoxycholate step to remove residual FLAG peptide (Brown et al., 1989, Anal. Biochem. 180:136-139). Using this procedure, and SDS-PAGE analysis, the yield of FLAGTgCKIβ was estimated as ˜200 μg of enzyme with >90% purity. Purification of FLAGTgCKIα was much less efficient with only about 1 μg of ˜10% pure enzyme obtained per 250 mL bacterial culture.
Preparations of FLAGTgCKIα and FLAGTgCKIβ were purified further on a SMART system FPLC 0.1 mL MonoQ anion exchange column (Pharmacia; New York, N.Y.) equilibrated in buffer A (50 mM Hepes, pH 7.4, 10% glycerol, 1 mM DTT) at room temperature. Samples of FLAG-affinity purified enzyme (10-100 μg) were syringe-passed through a 0.22 μm (pore-size) filter before loading on the column. A linear salt gradient was applied (0-500 mM in 3 mL at 100 μl/min) and 100 μl fractions were collected and analyzed by SDS-PAGE and for CKI activity. Fractions with peak activity were retained for further analysis. The degree of purity of the partially purified FLAGTgCKIα was estimated by densitometry of silver stained SDS-PAGE gels. A recombinant rat CKIδ enzyme used for control purposes was obtained from New England Biolabs.

TgCDPK1 = target: T2, TgCDPK1 (Toxoplasma gondii, UniProt Q9BJF5); assay: CDPK assay with Syntide-2, T. gondii CDPK1; assay type: biochemical; conditions: read-out: IC50 against the CDPK1 enzyme
T2 construct: The TgCDPK1 open reading frame was amplified by PCR from a Toxoplasma cDNA library; made in house
Description: as §2, §3
Purification of recombinant TgCDPK1 and TgPKG—The TgCDPK1 open reading frame was amplified by PCR from a Toxoplasma cDNA library, using primers based on the published sequence (Kieschnick et al., 2001, supra): sense primer, […] (SEQ ID NO:44); and, antisense primer, […] (SEQ ID NO:45). A C-terminal FLAG epitope tag was appended to the TgCDPK1 open reading frame by an additional round of PCR amplification (KOD polymerase) and the resulting DNA fragment was sub-cloned into a tubulin promoter expression vector (Donald and Liberator, 2002, supra). […]

TgCKIα [2] = target: T1, TgCKIα; assay: Casein kinase assay, TgCKIα (recombinant FLAGTgCKIα or partially purified native); assay type: biochemical; set-up: Vmax(app), FLAGTgCKIα; other: substrate titration, 2 μM ATP; Km(app), FLAGTgCKIα; conditions: substrate titration, 2 μM ATP; for Km: read-out: Km(app), FLAGTgCKIα
Description: as §2, with “The reactions were initiated by the addition of enzyme and incubated at room temperature for 60 min.” left out
as §3
as §5, with “Enzyme was eluted with 5 mL of 0.4 mg/mL FLAG peptide (Sigma) in NaCl-free wash buffer and concentrated with a centrifuge filtration unit (Amicon Ultra®, 10 kDa cut-off, Millipore).” left out, “Using this procedure, and SDS-PAGE analysis, the yield of FLAGTgCKIβ was estimated as ˜200 μg of enzyme with >90% purity. Purification of FLAGTgCKIα was much less efficient with only about 1 μg of ˜10% pure enzyme obtained per 250 mL bacterial culture.” left out
as §4

TgCKIα [3] = target: T1, TgCKIα; assay: as above; assay type: biochemical; set-up: Km(app), native TgCKIα; other: substrate titration, 2 μM ATP; IC50, nativeTgCKIα; other: partially purified native enzyme from Toxoplasma tachyzoites; sensitivity of native TgCKIα phosphopeptide kinase activity (HiTrapQ fractions 5-9); other: 0.2 μM hymenialdisine or 1; conditions: substrate titration, 2 μM ATP; read-out: Km(app), native TgCKIα
Description: as §2, with “The reactions were initiated by the addition of enzyme and incubated at room temperature for 60 min.” left out
as §3
as §5, with “Enzyme was eluted with 5 mL of 0.4 mg/mL FLAG peptide (Sigma) in NaCl-free wash buffer and concentrated with a centrifuge filtration unit (Amicon Ultra®, 10 kDa cut-off, Millipore).” left out, “Using this procedure, and SDS-PAGE analysis, the yield of FLAGTgCKIβ was estimated as ˜200 μg of enzyme with >90% purity. Purification of FLAGTgCKIα was much less efficient with only about 1 μg of ˜10% pure enzyme obtained per 250 mL bacterial culture.” left out
as §4

Chain of TgCKIβ (Q6QNM0 entry or part of it): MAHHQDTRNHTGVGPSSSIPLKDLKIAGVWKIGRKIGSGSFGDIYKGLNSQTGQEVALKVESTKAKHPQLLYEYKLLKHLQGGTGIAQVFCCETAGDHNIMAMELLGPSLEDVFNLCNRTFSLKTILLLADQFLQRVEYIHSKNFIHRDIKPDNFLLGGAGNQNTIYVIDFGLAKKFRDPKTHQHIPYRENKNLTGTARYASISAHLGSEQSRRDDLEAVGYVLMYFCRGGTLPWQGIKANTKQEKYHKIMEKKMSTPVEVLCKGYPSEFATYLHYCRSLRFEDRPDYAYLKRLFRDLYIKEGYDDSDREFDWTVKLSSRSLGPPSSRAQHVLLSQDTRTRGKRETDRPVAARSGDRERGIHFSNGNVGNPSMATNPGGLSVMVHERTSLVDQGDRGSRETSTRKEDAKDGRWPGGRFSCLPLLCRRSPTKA
T1 sequence (Q6QNM1 whole entry, looked up): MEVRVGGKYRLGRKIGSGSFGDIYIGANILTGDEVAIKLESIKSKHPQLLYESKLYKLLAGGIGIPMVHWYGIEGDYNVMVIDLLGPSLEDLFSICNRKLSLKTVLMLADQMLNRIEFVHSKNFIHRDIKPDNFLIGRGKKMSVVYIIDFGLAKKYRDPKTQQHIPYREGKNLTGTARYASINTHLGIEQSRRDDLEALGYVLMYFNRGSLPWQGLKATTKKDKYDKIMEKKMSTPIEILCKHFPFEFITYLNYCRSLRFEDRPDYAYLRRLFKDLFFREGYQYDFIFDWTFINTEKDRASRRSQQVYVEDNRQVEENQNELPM
Chain of EtCKIα (Q6QNL9 whole entry): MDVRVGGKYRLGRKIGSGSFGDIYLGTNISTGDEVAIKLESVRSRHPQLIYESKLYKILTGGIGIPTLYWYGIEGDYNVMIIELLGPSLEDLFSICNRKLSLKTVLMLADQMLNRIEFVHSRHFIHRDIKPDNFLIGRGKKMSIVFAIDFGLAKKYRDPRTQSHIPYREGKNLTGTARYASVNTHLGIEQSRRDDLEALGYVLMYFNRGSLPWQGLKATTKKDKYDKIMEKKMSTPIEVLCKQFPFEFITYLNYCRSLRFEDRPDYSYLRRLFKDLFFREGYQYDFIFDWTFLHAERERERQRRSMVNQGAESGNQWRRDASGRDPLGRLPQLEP
T2 sequence (Q9BJF5 entry or part of it): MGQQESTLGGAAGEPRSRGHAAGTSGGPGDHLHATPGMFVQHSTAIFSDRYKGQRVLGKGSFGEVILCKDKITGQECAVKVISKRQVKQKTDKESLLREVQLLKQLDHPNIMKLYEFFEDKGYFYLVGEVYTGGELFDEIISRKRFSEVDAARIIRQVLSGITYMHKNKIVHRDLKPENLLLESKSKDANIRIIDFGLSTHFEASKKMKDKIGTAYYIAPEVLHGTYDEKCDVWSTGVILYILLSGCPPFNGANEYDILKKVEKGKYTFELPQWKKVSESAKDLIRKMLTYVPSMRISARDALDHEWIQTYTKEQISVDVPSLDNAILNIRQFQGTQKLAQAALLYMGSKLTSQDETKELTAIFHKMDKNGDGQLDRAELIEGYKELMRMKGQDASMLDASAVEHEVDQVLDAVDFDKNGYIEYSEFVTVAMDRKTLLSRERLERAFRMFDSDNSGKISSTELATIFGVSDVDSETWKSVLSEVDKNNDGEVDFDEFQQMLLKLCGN

For CN1CCC(c2cc(-c3ccncc3)c(-c3ccc(F)cc3)[nH]2)CC1 [Compound 1], the IC50 (T. gondii tachyzoites; infected HFF cell monolayers, 36-48 hours) was 200 nM and the IC50 (T. gondii; Toxoplasma gondii, HFF) was 200 nM.

For CC(C)[C@H](CO)Nc1nc(Nc2cc(N)cc(Cl)c2)c2ncn(C(C)C)c2n1 [aminopurvalanol], the IC50 (T. gondii tachyzoites; Toxoplasma gondii, HFF) was 375 nM, the “activity against / sensitivity of EtCKIα” value (EtCKIα) was “good activity” and the IC50 (TgCKIα [1]) was 40 to 60 nM.

For Cn1cnc2c(NCc3ccccc3)nc(NCCO)nc21 [olomoucine], the “activity against cultured T. gondii parasites” value (T. gondii tachyzoites) was “no activity”.

For CC(C)[C@H](CO)Nc1nc(Nc2cccc(Cl)c2)c2ncn(C(C)C)c2n1 [purvalanol A], the “activity against cultured T. gondii parasites” value (T. gondii tachyzoites) was “mediocre activity” and the “activity against T. gondii in the uracil uptake (whole cell) assay” value (T. gondii) was “only mediocre activity”.

For CC[C@H](CO)Nc1nc(NCc2ccccc2)c2ncn(C(C)C)c2n1 [roscovitine], the “activity against cultured T. gondii parasites” value (T. gondii tachyzoites) was “mediocre activity” and the “activity against T. gondii in the uracil uptake (whole cell) assay” value (T. gondii) was “only mediocre activity”.

RRKDLHDDEEDEAMSITA [CKI peptide] was tested, and the “Vmax(app), FLAGTgCKIβ” value (TgCKIβ) was 8 nmol/min/mg and the Km (TgCKIβ) was 15 µM.

In the case of indirubin-3′-monoxime, the IC50 (TgCDPK1) is reported as 175 nM and the IC50 (TgCKIα [1]; recombinant or native forms of TgCKIα, read-out: IC50 against TgCKIα) is reported as 172 nM.

B1: α-casein: partially dephosphorylated α-casein from Sigma, kinase substrate (protein)
chain: RPKHPIKHQGLPQEVLNENLLRFFVAPFPEVFGKEKVNELSKDIGSESTEDQAMEDIKQMEAESISSSEEIVPNSVEQKHIQKEDVPSERYLGYLEQLLRLKKYKVPQLEIVPNSAEERLHSMKEGIHAQQKEPMIGVNQELAYFYPELFRQFYQLDAYPSGAWYYVPLGTQYTDAPSFSDIPNPIGSENSEKTTMPLW
With B1 the “Vmax(app), FLAGTgCKIβ” value (TgCKIβ) was 12 nmol/min/mg, the Km (TgCKIβ) was 5 µM and the “Vmax(app), FLAGTgCKIα” value (TgCKIα [2]) was 8 nmol/min/mg. It also gave a Km (TgCKIα [2]) of 4 µM and a Km (TgCKIα [3]) of 3 µM.

B2: β-casein: β-casein from Sigma, kinase substrate (protein)
chain: RELEELNVPGEIVESLSSSEESITRINKKIEKFQSEEQQQTEDELQDKIHPFAQTQSLVYPFPGPIPNSLPQNIPPLTQTPVVVPPFLQPEVMGVSKVKEAMAPKHKEMPFPKYPVEPFTESQSLTLTDVENLHLPLPLLQSWMHQPHQPLPPTVMFPPQSVLSLSQSKVLPVPQKAVPYPQRDMPIQAFLLYQEPVLGPVRGPFPIIV
In the case of B2, the “Vmax(app), FLAGTgCKIβ” value (TgCKIβ) is reported as 16 nmol/min/mg, the Km (TgCKIβ) is reported as 12 µM and the “Vmax(app), FLAGTgCKIα” value (TgCKIα [2]) is reported as 8 nmol/min/mg. The Km (TgCKIα [2]) was 30 µM and the Km (TgCKIα [3]) was 13 µM.
